Structures can show the parent of a compound that is named as a salt. Where only a bound is given, the exact number is not on record here.

Assay [1] deals with T1, WDR5 (Homo sapiens, UniProt P61964).
T1 construct: hexahistidine-SUMO (N, cleaved yes); made in house; host or cells: E. coli BL21-CodonPlus-RIL
Kind of assay: SPR binding of compounds to captured biotinylated WDR5, 1:1 steady-state affinity fit. The following applies: for Kd: SPR; for LE (ligand efficiency): from SPR KD. The method, then:
SPR assay of small molecule binding used minimally biotinylated WDR5^23–334 protein captured on streptavidin-coated SPR chips. WDR5 (1 eq.) was mixed with freshly water-dissolved EZ-link Sulfo-NHS-LC-LC-biotin (0.8 eq., Thermofisher Scientific). The reaction mixture was incubated on ice for 2 h; unreacted biotin reagent was then removed from the mixture using size-exclusion chromatography on a Superdex 75 (10/300) column equilibrated in storage buffer (10 mM HEPES, 150 mM NaCl, 5 mM DTT).
(§1) SPR experiments were performed using a Biacore T200 or S200 biosensor with a CM5 chip (GE Healthcare). Streptavidin was coupled to the chip surface at 310 K in HBS-P+ running buffer (10 mM HEPES, pH 7.4, 150 mM NaCl, 0.05%[v/v] Tween-20) after a 10 min activation with a 1:1 mixture of NHS/EDC (N-hydroxysuccinimide/N-ethyl-N′-(3-[…])carbodiimide). Protein was diluted to 100 μg·ml^−1 at pH 4.5 (10 mM sodium acetate, 0.005%[v/v] Tween-20) and injected for 7 min. The surface was then blocked with 1 M ethanolamine, pH 8.0, for 7 min. Immobilization levels were typically 7000–13 000 RU, but as low as 1800 RU for compounds 55, 59, and Ac-ARV-NH2, where fitting uses a 1:1 kinetic model to determine dissociation rates. WDR5 capture was then performed over the streptavidin-coupled flow-cells at 293 K in HBS-P+ buffer with the addition of 5 mM DTT. Capture levels for fragment screening were ∼19 000 RU, while capture levels for subsequent testing were ∼9000 RU. The N-terminal domain of heat-shock protein 90 (Hsp90, UnprotKB P08238, residues 1–382) was captured (∼11 000 RU) during screening to provide an unrelated negative control surface, activity being monitored with intermittent ADP (adenosine diphosphate) injections. Biotin was subsequently injected over WDR5- and negative control protein-bound flow-cells to block remaining unbound streptavidin. SPR experiments were performed at 298 K in SPR running buffer containing 50 mM HEPES, 150 mM NaCl, 5 mM DTT, and 0.05%[v/v] Tween-20, 2%[v/v] DMSO. Initial fragments were screened at 100 μM. When performing dose-response testing, analytes were serially diluted (2- or 3-fold), injected for 30 s contact time, and allowed to dissociate for 30 s. The flow rate was 60 μl·min^−1. Binding sensorgrams were processed, solvent-corrected, and double-referenced using Scrubber software (BioLogic Software, Australia). […] Therefore, to determine binding affinities (KD values), responses at equilibrium for each analyte were fitted to a 1:1 steady-state affinity model available within Scrubber.
(In general: SPR reads the build-up and loss of mass on a sensor chip optically.)

Assay [2] has as its target T1, WDR5. Kind of assay: SPR 1:1 kinetic model to determine dissociation rates from WDR5. It counts as binding. The following applies: for koff: read-out: kd (dissociation rate); for binding to WDR5: samples were mixtures of diastereomers.
From the text: Compound 1 was identified as a highly ligand efficient hit that binds the phenylalanine clamp of the WIN site, approximating the arginine headgroup of the WIN motif. […] Two peptidomimetics, with 1 replacing the arginine, were synthesized. Compounds 55 and 59 are analogs of the Ac-ARV-NH2 and Ac-α-MeAla-RV-NH2 tripeptides,[21] respectively (Fig. 5). […] The hydroxymethyl imidazole thus appears to be a good replacement for the charged arginine residue in this context, and 59 may serve as a tool compound with more sensible physicochemical parameters than previous potent tripeptides. […] Binding constants of compounds 55 and 59 are thus difficult to derive. Instead, the (concentration independent) dissociation rates have been reported for 55 and 59 (kd = 0.067 s^−1 and 0.025 s^−1, respectively) to provide a more meaningful comparison to the analogous tripeptide Ac-ARV-NH2 (kd = 0.054 s^−1). […] However, if multiple diastereomers of 55/59 were indeed binding WDR5, it would not detract from the conclusion that hydroxymethyl imidazole-peptidomimetics have potential as WDR5 WIN-site inhibitors.
as §1

Setting [3] is: Table II, fragment core, mean ± SE (SE not reported where n = 1).
Where [4] appears, read: Table III, ether-derivatized 2, mean ± SE (SE not reported where n = 1).
The mark [5] stands for this setting: Table IV, derivatives of 2, mean ± SE (SE not reported where n = 1).
[6] abbreviates: 1:1 kinetic model, concentration independent, 55 and 59 tested as mixtures of diastereomers.

The Kd is a measure of binding affinity in units of concentration. Low values mean higher affinity, high ones lower affinity. Compound `CCCCc1ncc(CO)[nH]1` [Compound 1, (2-butyl-1H-imidazol-5-yl)methanol] showed a Kd at WDR5 [1] (setting [3]) of 480 ± 30 µM. For the same compound, on WDR5 [1], the “LE (ligand efficiency)” value is 0.41 kcal·mol^−1·heavy atom^−1.
For the compound `Cc1nc(CO)c[nH]1` [Compound 2, (2-methyl-imidazol-4-yl)methanol], the dissociation constant Kd at WDR5 [1] (setting [3]) and at WDR5 [1] (setting [4]) was 260 ± 20 µM in each case. Also, the “LE (ligand efficiency)” value at WDR5 [1] amounted to 0.61 kcal·mol^−1·heavy atom^−1.
Regarding `OCc1c[nH]cn1` [Compound 3], the dissociation constant Kd at WDR5 [1] was over 3000 µM. Also, at WDR5 [1] (Table II, estimated from single concentration (100 μM) screen, read-out: KD), the potency estimated from few doses is over 3000 µM.
Take `Cc1cc(CO)n[nH]1` [Compound 4]: the Kd at WDR5 [1] (setting [3]) is over 3000 µM.
Same read-out and setting: under `OCc1ncc[nH]1` [Compound 5] stands over 3000 µM.
Compound `Cc1ncc[nH]1` [Compound 6, 2-methyl imidazole] yielded a dissociation constant (Kd) at WDR5 [1] (setting [3]) of 2100 µM. Also, the “LE (ligand efficiency)” value on WDR5 [1] stood at 0.60 kcal·mol^−1·heavy atom^−1.
Compound `COCc1c[nH]c(C)n1` [Compound 7] returned a Kd at WDR5 [1] (setting [4]) of over 3000 µM.
The same measure, in the same setting: under `CCCOCc1c[nH]c(C)n1` [Compound 8, 2-methyl-4-(propoxymethyl)-1H-imidazole] stands over 3000 µM.
The same measure, in the same setting: with `Cc1nc(COC(C)C)c[nH]1` [Compound 9, 4-(isopropoxymethyl)-2-methyl-1H-imidazole] the figure was over 3000 µM; with `Cc1nc(COCC(F)(F)F)c[nH]1` [Compound 10, 2-methyl-4-((2,2,2-trifluoroethoxy)methyl)-1H-imidazole], over 3000 µM.
Still for that read-out and setting: with `Cc1nc(COCc2ccccc2)c[nH]1` [Compound 11, 4-((benzyloxy)methyl)-2-methyl-1H-imidazole] the figure was 950 µM.
Turning to `OCc1c[nH]c(-c2ccccc2)n1` [Compound 13], the dissociation constant Kd at WDR5 [1] was 5200 µM; on WDR5 [1] (setting [5]), over 3000 µM.
In turn, `OCc1c[nH]c(Cc2ccccc2)n1` [Compound 14, (2-benzyl-1H-imidazol-4-yl)methanol] returned a dissociation constant (Kd) at WDR5 [1] (setting [5]) of 530 µM.
`OCc1c[nH]c(CCc2ccccc2)n1` [Compound 15, (2-phenethyl-1H-imidazol-4-yl)methanol] returned an equilibrium dissociation constant (Kd) at WDR5 [1] (setting [5]) of 300 ± 40 µM.
Regarding `OCc1c[nH]c(CCCc2ccccc2)n1` [Compound 16, (2-(3-phenylpropyl)-1H-imidazol-4-yl)methanol], binding on WDR5 [1] (setting [5]) was characterised by a dissociation constant (Kd) of 140 ± 30 µM. At WDR5 [1], the “LE (ligand efficiency)” value is recorded as 0.33 kcal·mol^−1·heavy atom^−1.
Taken in the same sequence, the figures for `COC(CCc1nc(CO)c[nH]1)c1ccccc1` (stereo not shown) [Compound 17, (2-(3-methoxy-3-phenylpropyl)-1H-imidazol-4-yl)methanol] were 22 ± 6 µM and 0.35 kcal·mol^−1·heavy atom^−1.
For the compound `CNC(=O)CCc1nc(CO)c[nH]1` [Compound 23, 3-(4-(hydroxymethyl)-1H-imidazol-2-yl)-N-methylpropanamide], at WDR5 [1] (setting [5]), binding was characterised by a dissociation constant (Kd) of 890 µM.
Still for that read-out and setting: with `CCOC(=O)CCc1nc(CO)c[nH]1` [Compound 24, ethyl 3-(4-(hydroxymethyl)-1H-imidazol-2-yl)propanoate] the figure was 240 ± 10 µM; with `NCCCCc1ncc(CO)[nH]1` [Compound 28, (2-(4-aminobutyl)-1H-imidazol-5-yl)methanol bis trifluoroacetic acid], 350 ± 40 µM.
On the same count and under the same terms, under `CC(=O)NCCCCc1ncc(CO)[nH]1` [Compound 29, N-(4-(5-(hydroxymethyl)-1H-imidazol-2-yl)butyl)acetamide trifluoroacetic acid] stands 200 ± 10 µM.
Still for that read-out and setting: with `O=C(NCCCCc1ncc(CO)[nH]1)c1ccccc1` [Compound 30, N-(4-(5-(hydroxymethyl)-1H-imidazol-2-yl)butyl)benzamide] the figure was 12 ± 1 µM; with `O=C(Cc1ccccc1)NCCCCc1ncc(CO)[nH]1` [Compound 31, N-(4-(5-(hydroxymethyl)-1H-imidazol-2-yl)butyl)-2-phenylacetamide trifluoroacetic acid], 25 ± 3 µM.
Consider `COC(=O)NCCCCc1ncc(CO)[nH]1.O=C(O)C(F)(F)F` [Compound 32, Methyl (4-(5-(hydroxymethyl)-1H-imidazol-2-yl)butyl)carbamate trifluoroacetic acid], for which binding on WDR5 [1] (setting [5]) was put at a Kd of 28.9 ± 0.5 µM. Moreover, the “LE (ligand efficiency)” value on WDR5 [1] was found to be 0.39 kcal·mol^−1·heavy atom^−1.
`O=C(NCCCCc1ncc(CO)[nH]1)OCc1ccccc1` [Compound 35, Benzyl (4-(5-(hydroxymethyl)-1H-imidazol-2-yl)butyl)carbamate trifluoroacetic acid] showed a Kd on WDR5 [1] (setting [5]) of 11 ± 1 µM.
On WDR5 [1] (setting [5]), `COC(=O)N(CCCCc1ncc(CO)[nH]1)Cc1ccccc1` [Compound 37, Methyl benzyl(4-(5-(hydroxymethyl)-1H-imidazol-2-yl)butyl)carbamate trifluoroacetic acid] returned a dissociation constant Kd of 4.5 ± 0.3 µM.
`COC(=O)N(CCCCc1nc(CO)c[nH]1)CC1CCNCC1` [Compound 40, Methyl (4-(4-(hydroxymethyl)-1H-imidazol-2-yl)butyl)(piperidin-4-ylmethyl)carbamate bis trifluoroacetic acid]: at WDR5 [1] (setting [5]), binding was put at a Kd of 19 ± 3 µM.
For the compound `COC(=O)N(CCCCc1nc(CO)c[nH]1)Cc1ccc(=O)[nH]c1.O=C(O)C(F)(F)F` [Compound 45, Methyl (4-(4-(hydroxymethyl)-1H-imidazol-2-yl)butyl)((6-oxo-1,6-dihydropyridin-3-yl)methyl)carbamate trifluoroacetic acid], the dissociation constant Kd on WDR5 [1] (setting [5]) was 98.6 ± 0.6 µM. The “fold weaker binding than 37” value at WDR5 [1] (ratio of SPR KD values) is recorded as 20 fold.
In turn, `COC(=O)N(CCCCc1nc(CO)c[nH]1)Cc1cc[nH]c(=O)c1` [Compound 47, Methyl (4-(4-(hydroxymethyl)-1H-imidazol-2-yl)butyl)((2-oxo-1,2-dihydropyridin-4-yl)methyl)carbamate hydrochloride] had a Kd at WDR5 [1] (setting [5]) of 24.2 ± 0.2 µM.
`CC(=O)NC(C)C(=O)NC(CCCc1nc(CO)c[nH]1)C(=O)NC(C(N)=O)C(C)C` (stereo not shown) [Compound 55, 2-(2-acetamidopropanamido)-N-(1-amino-3-methyl-1-oxobutan-2-yl)-5-(4-(hydroxymethyl)-1H-imidazol-2-yl)pentanamide]: the koff at WDR5 [2] (setting [6]) is 0.067 s⁻¹. The “binding to WDR5” value on WDR5 [2] is “Binding was observed”.
As to `CC(=O)NC(C)(C)C(=O)NC(CCCc1nc(CO)c[nH]1)C(=O)NC(C(N)=O)C(C)C` (stereo not shown) [Compound 59, 2-(2-acetamido-2-methylpropanamido)-N-(1-amino-3-methyl-1-oxobutan-2-yl)-5-(4-(hydroxymethyl)-1H-imidazol-2-yl)pentanamide], at WDR5 [2] (setting [6]), the koff was determined as 0.025 s⁻¹. Moreover, at WDR5 [2], the “binding to WDR5” value is “Binding was observed”.
Take Ac-ARV-NH2 [reference compound]: the “kd (dissociation rate)” value at WDR5 [2] (setting [6]) is 0.054 s⁻¹.

(Values after publication PMC6859963, “Fragment screening for a protein-protein interaction inhibitor to WDR5” (Structural Dynamics, 2019).)
